From patent US20260016464A1, “METHOD FOR CHARACTERIZING, TYPING AND IDENTIFYING CELLS AND USE THEREOF” (Yigong Ruixin (Xiamen) Technology Co., Ltd, priority 2023, published 2026)

Columns and labels:
[1] = tested on: non-small cell lung cancer cells A549; experiment: Cell viability reflected by cellular mechanical force (cellular mechanical force detection device); type: cell-based
From the text: This example specifically provides application of cellular physical information acquired by the characterization system for cell/multicellular aggregate interaction described in any one of examples 10 to 12 or the cellular mechanical force detection method described in example 14 in monitoring cell viability.
(§1) Please refer to FIG. 40, FIG. 41 and FIG. 42. FIG. 40 is a schematic diagram of the operation process of the cell viability detection method; FIG. 41 is a comparison diagram of cell viability measured by MTT method and cellular mechanical force measured by the device or system or method of the present invention after A549 cells are treated with different doses of 5FU for 24 h; FIG. 42 is a comparison diagram of cell viability measured by MTT method and cellular mechanical force measured by the device or system or method of the present invention after A549 cells are treated with different doses of 5FU for different times.
(§2) Specifically, in this example, non-small cell lung cancer cells A549 are cultured on multiple cellular mechanical force detection devices, treated with different doses of the cell proliferation inhibitory drug 5-fluorouracil (5-FU), and cellular mechanical force at different time points is monitored by the characterization system for cell/multicellular aggregate interaction described in any one of examples 10 to 12 or the cellular mechanical force detection method described in example 14. Cell proliferation and cytotoxicity at different time points are monitored by CCK-8 kit, and cell viability measured by MTT assay is used as a control group to obtain data in FIGS. 41 and 42.

[2] = tested on: non-small cell lung cancer cells A549; experiment: Cell viability measured by MTT assay (control method); type: cell-based
Description: as §1, §2

[3] = different doses and times of treatment (FIGS. 41 and 42)

## O=c1[nH]cc(F)c(=O)[nH]1 [5FU, 5-fluorouracil]
[1]; [3]
  cell viability reflected by the cellular mechanical force: gradually decreasing trend in a dose-dependent manner
[1]; different doses, 24 h, compared with control group DMSO (FIG. 41)
  reduction range of cell viability reflected by mechanical force: larger than that reflected by the traditional MTT assay
[1]; treatment dose of 0.5 μM (FIG. 42)
  time at which a significant decreasing trend of cellular mechanical force can be observed: 6 h
[1]; treatment dose of 1 μM (FIG. 42)
  time at which a significant decreasing trend of cellular mechanical force can be observed: 3 h
[2]; [3]
  cell viability measured by the MTT assay: gradually decreasing trend in a dose-dependent manner
[2]; within 12 h of treatment (FIG. 42)
  change in cell viability measured by the MTT method: not obvious
